Reference: ChEMBL document CHEMBL2311407, “Design and synthesis of diazatricyclodecane agonists of the G-protein-coupled receptor 119” (J Med Chem, 2013)

Experiment: Apparent intrinsic clearance in human liver microsomes
Type: ADME, Microsome
Conditions: read-out: CLH(app)

Row | SMILES | CLint scaled
1 | CC[C@@H](C)OC(=O)N1C2CC3CC1CC(C2)N3c1ncnc(Oc2cccnc2C)c1C | > 30 mL/min/kg
2 | CC[C@H](C)OC(=O)N1C2CC3CC1CC(C2)N3c1ncnc(Oc2cccnc2C)c1C | > 30 mL/min/kg
3 | Cc1ncccc1Oc1ncnc(N2C3CC4CC2CC(C3)N4C(=O)OC2(C)CCC2)c1C | > 30 mL/min/kg
